The OligoGym collection
After the bases stand the sugars from the 5' end (letter, count) and the backbone: PS all phosphorothioate, else s phosphorothioate and o phosphodiester by linkage. Methylation of C is not given here. e = 2'-O-(2-methoxyethyl) (MOE); k = constrained ethyl (cEt); d = 2'-deoxy (DNA); m = 2'-O-methyl

Biological target: HSD17B13
Conditions: ASO, HepaRG

Row | Sequence | target mRNA inhibition (1 µM) | other results
1 | TAATACATTAGCAAGC (sugars kkdddddddddkekek, PS) | 34% | –
2 | CTTCTTACGACTTCAT (sugars k3 d10 k3, PS) | 45% | –
3 | GTTATTCTCTTGACAA (sugars kkdddddddddkekek, PS) | 27% | –
4 | ATCTUAAGATACCCAG (sugars k3 d1 m1 d8 k3, PS) | 55% | –
5 | CTGAGTAAACGACTCT (sugars k3 d10 k3, PS) | 33% | –
6 | AAATAGAGTCGGTCAC (sugars k3 d1 m1 d8 k3, PS) | 63% | –
7 | TCTCTTAGCTGTGCAC (sugars k3 d10 k3, PS) | 79% | target mRNA inhibition (0.02 µM): 15%; target mRNA inhibition (0.078 µM): 30%; target mRNA inhibition (0.313 µM): 52%; target mRNA inhibition (1.25 µM): 74%; target mRNA inhibition (5 µM): 89%
8 | TTACAGCATCAAGACA (sugars k3 d1 m1 d8 k3, PS) | 46% | –
9 | GTCACCTTTCATAATG (sugars kkdddddddddkekek, PS) | 4% | –
10 | GTCTACCTCTAAGTTA (sugars k3 d9 k3 e1, PS) | 41% | –
11 | GTCCTAGGATGTTGAC (sugars k3 d10 k3, PS) | 1% | –
12 | CATAAAGCTGGATTGT (sugars k3 d10 k3, PS) | 0% | –
13 | CTACAAGAGGTTATTT (sugars k3 d10 k3, PS) | 31% | –
14 | TGTCTCCAATACAGGC (sugars k3 d10 k3, PS) | 39% | –
15 | AAGACTTTGAGACTCT (sugars k3 d10 k3, PS) | 62% | –
16 | TGTCCACCTTTAAATG (sugars k3 d1 m1 d8 k3, PS) | 17% | –
17 | TCCCAAGGCCTGAAGT (sugars k3 d10 k3, PS) | 43% | –
18 | TCCCAACCCAAGCTAC (sugars k3 d10 k3, PS) | 8% | –
19 | ACAGUCTTAAACCTTC (sugars k3 d1 m1 d8 k3, PS) | 81% | target mRNA inhibition (0.02 µM): 19%; target mRNA inhibition (0.078 µM): 35%; target mRNA inhibition (0.313 µM): 41%; target mRNA inhibition (1.25 µM): 67%; target mRNA inhibition (5 µM): 85%
20 | TACAGGCCATAATCTT (sugars k3 d10 k3, PS) | 16% | –
21 | AGGTTTAGCAATTTAG (sugars k3 d10 k3, PS) | 54% | –
22 | GTTGAGATAAAGCTGC (sugars k3 d10 k3, PS) | 54% | –
23 | TGACAACAGAGTTCTG (sugars k3 d10 k3, PS) | 11% | –

Row | Sequence | target mRNA inhibition (1 µM) | other results
24 | GATCTAGAACACTTGC (sugars k3 d10 k3, PS) | 27% | –
25 | TGTTGACCTCAAATGT (sugars k3 d10 k3, PS) | 14% | –
26 | GGCTGGATATACTGTC (sugars k3 d10 k3, PS) | 18% | –
27 | CAGCATATTCATTTGG (sugars k3 d10 k3, PS) | 49% | –
28 | AAACATCTCTGGGACC (sugars k3 d9 k3 e1, PS) | 48% | –
29 | TAATGAATCATGATTG (sugars k3 d10 k3, PS) | 2% | –
30 | ACACUAATATTGAGGC (sugars k3 d1 m1 d8 k3, PS) | 43% | –
31 | GTTATACAGAAGACAG (sugars k3 d10 k3, PS) | 54% | –
32 | GAATACGCTGAGAGTT (sugars k3 d10 k3, PS) | 11% | –
33 | TACAGATTGGAATGCT (sugars k3 d9 k3 e1, PS) | 66% | –
34 | GTAGGAGTAGATGATG (sugars k3 d10 k3, PS) | 7% | –
35 | TCACCAACGACTCCAA (sugars k3 d10 k3, PS) | 19% | –
36 | TCTTAAACCTTCCCTG (sugars kkdddddddddkekek, PS) | 24% | –
37 | GTGTTCTTGTTGATAT (sugars k3 d9 k3 e1, PS) | 66% | –
38 | CAGCATTGATTCGAAA (sugars k3 d10 k3, PS) | 69% | target mRNA inhibition (0.02 µM): 2%; target mRNA inhibition (0.078 µM): 0%; target mRNA inhibition (0.313 µM): 26%; target mRNA inhibition (1.25 µM): 56%; target mRNA inhibition (5 µM): 65%
39 | CTTTTGTCCACCTTTA (sugars k3 d10 k3, PS) | 76% | –
40 | ATTGGTAAGTATTCCA (sugars k3 d10 k3, PS) | 50% | –
41 | AGACTAAGGGACCAGG (sugars k3 d10 k3, PS) | 80% | target mRNA inhibition (0.02 µM): 22%; target mRNA inhibition (0.078 µM): 24%; target mRNA inhibition (0.313 µM): 56%; target mRNA inhibition (1.25 µM): 90%; target mRNA inhibition (5 µM): 94%
42 | CACTAATGAATCATGA (sugars k3 d10 k3, PS) | 25% | –
43 | GTACAGTAGGCAGTTT (sugars k3 d10 k3, PS) | 50% | –
44 | AAGTTAATAGGACTAA (sugars k3 d10 k3, PS) | 17% | –
45 | TGATTGAGTTCTCCAC (sugars k3 d9 k3 e1, PS) | 30% | –
46 | GATTTAGTTGGTAGCT (sugars k3 d10 k3, PS) | 63% | –

Row | Sequence | target mRNA inhibition (1 µM) | other results
47 | CGCACACTGAAGCCAC (sugars k3 d10 k3, PS) | 56% | –
48 | GAAATTTGTGAACCTG (sugars k3 d10 k3, PS) | 32% | –
49 | TTAAACCTTCCCTGTG (sugars k3 d9 k3 e1, PS) | 18% | –
50 | TGATTGAGTTCTCCAC (sugars kkdddddddddkekek, PS) | 32% | –
51 | AACCAATCCTCAGCTT (sugars k3 d10 k3, PS) | 0% | –
52 | GAAGATTAGTTAACCT (sugars k3 d10 k3, PS) | 13% | –
53 | CTTGATGTAGTGGGAG (sugars k3 d9 k3 e1, PS) | 62% | –
54 | CTTTGAGACTCTTGTT (sugars kkdddddddddkekek, PS) | 42% | –
55 | GAAGTTAGTATAGTTA (sugars kkdddddddddkekek, PS) | 56% | –
56 | CAGTCCTTGTGTAGTC (sugars k3 d10 k3, PS) | 70% | target mRNA inhibition (0.02 µM): 18%; target mRNA inhibition (0.078 µM): 21%; target mRNA inhibition (0.313 µM): 49%; target mRNA inhibition (1.25 µM): 79%; target mRNA inhibition (5 µM): 95%
57 | CTTAACAAACCTCCAC (sugars k3 d10 k3, PS) | 3% | –
58 | GAATAGCAAGCCAACA (sugars kkdddddddddkekek, PS) | 27% | –
59 | ATAAGAAGAGAGCTCA (sugars k3 d10 k3, PS) | 14% | –
60 | TAATTGCATCTGCTCG (sugars k3 d10 k3, PS) | 46% | –
61 | TTTAAAATAGAGTCGG (sugars k3 d9 k3 e1, PS) | 58% | –
62 | AGTCATATTGAAAATC (sugars k3 d10 k3, PS) | 39% | –
63 | CTCAGGCTGTAAGAGT (sugars k3 d9 k3 e1, PS) | 21% | –
64 | CAACTTTTAGTCAGGT (sugars k3 d10 k3, PS) | 66% | –
65 | GTGGCCGCACACTGAA (sugars k3 d10 k3, PS) | 41% | –
66 | CATTAATGCCACCCTA (sugars k3 d10 k3, PS) | 8% | –
67 | GTGCTTTTGTGATCCA (sugars k3 d10 k3, PS) | 62% | –
68 | ACCACATACGCATGCG (sugars k3 d10 k3, PS) | 45% | –
69 | CTGTGTTAGCTTTAAT (sugars k3 d10 k3, PS) | 67% | target mRNA inhibition (0.02 µM): 9%; target mRNA inhibition (0.078 µM): 0%; target mRNA inhibition (0.313 µM): 28%; target mRNA inhibition (1.25 µM): 77%; target mRNA inhibition (5 µM): 92%
